From patent US20040082551A1, “Novel pyrazoles and their use as p38 kinase inhibitors” (priority 2002, published 2004)
“And” between values parts separate entries of the source, which are not always exact repeats. Equal entries are not always repeated.

Each compound was assayed against T1, human p38 kinase alpha (Homo sapiens, UniProt Q16539) (assay: In vitro p38 kinase inhibition analysis (PHAS-I 32P-ATP or EGFRP 33P-ATP format)). Conditions: Table 1; compounds of Examples 1-28; one of two in vitro assay methods; read-out: p38α Kinase Inhibition (IC50 in μM).
T1 construct: The coding region of the human p38α cDNA was obtained by PCR-amplification from RNA isolated from the human monocyte cell line THP.1; made in house; host or cells: E. coli DH10B
T1 sequence (Q16539 whole entry): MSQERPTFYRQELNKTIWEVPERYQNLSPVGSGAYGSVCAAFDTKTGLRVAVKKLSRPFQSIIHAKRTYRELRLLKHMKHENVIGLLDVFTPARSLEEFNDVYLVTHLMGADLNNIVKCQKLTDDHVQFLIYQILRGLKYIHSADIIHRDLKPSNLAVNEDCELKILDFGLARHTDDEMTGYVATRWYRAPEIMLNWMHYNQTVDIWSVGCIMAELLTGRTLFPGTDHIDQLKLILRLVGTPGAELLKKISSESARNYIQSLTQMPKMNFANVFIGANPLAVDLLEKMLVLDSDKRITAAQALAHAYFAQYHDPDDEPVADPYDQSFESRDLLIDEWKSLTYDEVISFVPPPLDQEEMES
Format: biochemical
Method: The ability of compounds to inhibit human p38 kinase alpha was evaluated using one of two in vitro assay methods. In the first method, activated human p38 kinase alpha phosphorylates a biotinylated substrate, PHAS-I (phosphorylated heat and acid stable protein-insulin inducible), in the presence of gamma ^32P-ATP (^32P-ATP). PHAS-I was biotinylated before the assay, and provided a means of capturing the substrate which was phosphorylated during the assay. p38 Kinase was activated by MKK6. Compounds were tested in 10 fold serial dilutions over the range of 100 μM to 0.001 μM using 1% DMSO. Each concentration of inhibitor was tested in triplicate.
All reactions were carried out in 96 well polypropylene plates. Each reaction well contained 25 mM HEPES pH 7.5, 10 mM magnesium acetate, and 50 μM unlabeled ATP. […] Activated human p38 kinase alpha was used at 1 μg per 50 μl reaction volume, representing a final concentration of 0.3 μM. Gamma ^32P-ATP was used to follow the phosphorylation of PHAS-I. ^32P-ATP has a specific activity of 3000 Ci/mmol, and was used at 1.2 μCi per 50 μl reaction volume. The reaction proceeded either for one hr or overnight at 30° C.
Following incubation, 20 μl of reaction mixture was transferred to a high capacity streptavidin coated filter plate (SAM-streptavidin-matrix, Promega) prewetted with phosphate buffered saline. The transferred reaction mix was allowed to contact the streptavidin membrane of the Promega plate for 1-2 min. […] Filter plates were air dried and 20 μl of scintillant was added. The plates were sealed and counted.
A second assay format was alternatively employed. This assay is based on p38 kinase alpha being induced phosphorylation of EGFRP (epidermal growth factor receptor peptide, a 21 mer) in the presence of ^33P-ATP. Compounds were tested in 10 fold serial dilutions over the range of 100 μM to 0.001 μM in 10% DMSO. Each concentration of inhibitor was tested in triplicate. Compounds were evaluated in 50 μl reaction volumes in the presence of 25 mM HEPES pH 7.5, 10 mM magnesium acetate, 4% glycerol, 0.4% bovine serum albumin, 0.4 mM DTT, 50 μM unlabeled ATP, 25 μg EGFRP (200 μM), and 0.05 uCi gamma ^33P-ATP. Reactions were initiated by addition of 0.09 μg of activated, purified human GST-p38 kinase alpha. Activation was carried out using GST-MKK6 (5:1,p38:MKK6) for one hr at 30° C. in the presence of 50 μM ATP. Following incubation for 60 min at room temperature, the reaction was stopped by addition of 150 μl of AG 1×8 resin in 900 mM sodium formate buffer, pH 3.0 (1 volume resin to 2 volumes buffer). The mixture was mixed three times with pipetting. Afterward, the resin was allowed to settle. A total of 50 μl of clarified solution head volume was transferred from the reaction wells to Microlite-2 plates. 150 μl of Microscint 40 was then added to each well of the Microlite plate, and the plate was sealed, mixed, and counted.
In the case of `Fc1cc(Cl)ccc1-c1n[nH]c(C2CCNCC2)c1-c1ccncn1` [Example 26, 4-[3-(4-chloro-2-fluorophenyl)-5-piperidin-4-yl-1H-pyrazol-4-yl]pyrimidine], the IC50 is reported as 0.0641 µM. Compound `O[C@H]1CC[C@H](c2[nH]nc(-c3ccc(Cl)cc3)c2-c2ccncn2)CC1` [Example 6, 4-[3-(4-chlorophenyl)-4-pyrimidin-4-yl-1H-pyrazol-5-yl]-trans-cyclohexanol] has an IC50 of 0.289 µM.

Same assay, conditions: Table 2; additional pyrazole compounds, Examples 56-169; read-out: p38α Kinase Inhibition (IC50 in μM)
In the case of `C[C@H](O)[C@@H](O)C(=O)N1CCC(c2[nH]nc(-c3ccc(Cl)cc3)c2-c2ccncn2)CC1` [Example 64], the IC50 is reported as 0.596 µM. For `CS(=O)(=O)N1CCC(c2[nH]nc(-c3ccc(Cl)cc3F)c2-c2ccnc(NC3CCCC3)n2)CC1` [Example 159], the IC50 was 0.0047 µM. For `COc1cc(Cl)ccc1-c1n[nH]c(C2CCN(C(=O)CO)CC2)c1-c1ccncn1` [Example 79], the IC50 was 19.3 µM. `CN(C)CCNc1nccc(-c2c(-c3cccc(Cl)c3)n[nH]c2C2CCN(C(=O)OC(C)(C)C)CC2)n1` [Example 145] showed an IC50 of 4.1 µM. `C[C@H](O)C(=O)N1CCC(c2[nH]nc(-c3ccc(Cl)cc3F)c2-c2ccncn2)CC1` [Example 107] was tested, and the IC50 was 0.0777 µM. Work on `C[C@@H](N[C@H]1CC[C@@H](c2[nH]nc(-c3ccc(Cl)cc3)c2-c2ccncn2)CC1)c1ccc(F)cc1` [Example 126] yielded an IC50 of 0.13 µM. `CN(C)CCOc1nccc(-c2c(-c3ccc(Cl)cc3F)n[nH]c2C2CCN(C(=O)CO)CC2)n1` [Example 158] was tested, and the IC50 was 1.3 µM and 0.647 µM. Compound `C[C@H](O)C(=O)N1CCC(c2[nH]nc(-c3cc(Cl)ccc3F)c2-c2ccncn2)CC1` [Example 110] has an IC50 of 0.255 µM. For `O=C(CO)N1CCC(c2[nH]nc(-c3cc(F)cc(C(F)(F)F)c3)c2-c2ccncn2)CC1` [Example 101], the IC50 was 2.71 µM. `O=C(CO)N1CCC(c2[nH]nc(-c3ccc(Cl)cc3)c2-c2ccnc(NC3CCN(Cc4ccccc4)CC3)n2)CC1` [Example 151] was tested, and the IC50 was 0.053 µM. In the case of `C[C@H](O)C(=O)N1CCC(c2[nH]nc(-c3cc(F)cc(C(F)(F)F)c3)c2-c2ccncn2)CC1` [Example 115], the IC50 is reported as 8.48 µM. With `O=C(CO)N1CCC(c2[nH]nc(-c3c(F)cccc3F)c2-c2ccncn2)CC1` [Example 81] the IC50 was 4.82 µM. Compound `COc1cc(Cl)ccc1-c1n[nH]c(C2CCN(C(=O)COC(C)=O)CC2)c1-c1ccncn1` [Example 77] has an IC50 of 22.8 µM. `O=C(CO)N1CCC(c2[nH]nc(-c3ccc(F)cc3F)c2-c2ccncn2)CC1` [Example 67] gave an IC50 of 0.248 µM. `CN(C)CCOc1nccc(-c2c(-c3cccc(Cl)c3)n[nH]c2C2CCNCC2)n1` [Example 138] showed an IC50 of 0.162 µM. `CN1CCC(c2[nH]nc(-c3ccc(Cl)cc3)c2-c2ccnc(NC3CCCC3)n2)CC1` [Example 148] gave an IC50 of 0.0148 µM. `Clc1ccc(-c2n[nH]c(C3CCNCC3)c2-c2ccnc(NC3CCCC3)n2)cc1` [Example 141] showed an IC50 of 0.01 µM. In the case of `C[C@H](O)C(=O)N1CCC(c2[nH]nc(-c3cc(C(F)(F)F)ccc3F)c2-c2ccncn2)CC1` [Example 111], the IC50 is reported as 0.438 µM. `O=C(CO)N1CCC(c2[nH]nc(-c3ccc(Cl)cc3)c2-c2ccnc(O)n2)CC1` [Example 59] showed an IC50 of 15.8 µM. `O=C(CO)N1CCC(c2[nH]nc(-c3ccc(Cl)cc3)c2-c2ccnc(O[C@@H]3CCOC3)n2)CC1` [Example 90] was tested, and the IC50 was 0.34 µM. `COc1ccc(-c2n[nH]c(C3CCN(C(=O)CO)CC3)c2-c2ccncn2)cc1` [Example 84] gave an IC50 of 1.5 µM. `CN(C)CCOc1nccc(-c2c(-c3ccc(F)c(C(F)(F)F)c3)n[nH]c2C2CCNCC2)n1` [Example 155] gave an IC50 of 0.527 µM. For `N#Cc1ccc(Oc2nccc(-c3c(-c4ccc(Cl)cc4)n[nH]c3C3CCN(C(=O)CO)CC3)n2)cc1` [Example 94], the IC50 was 0.108 µM. Work on `O=C(CO)N1CCC(c2[nH]nc(-c3cccc(F)c3F)c2-c2ccncn2)CC1` [Example 80] yielded an IC50 of 2.45 µM. For `N#Cc1ccc(-c2n[nH]c(C3CCN(C(=O)CO)CC3)c2-c2ccncn2)cc1` [Example 74], the IC50 was 7.06 µM. Work on `CC(C)(C)OC(=O)N1CCC(c2[nH]nc(-c3ccc(Cl)cc3)c2-c2ccnc(NC3CCCC3)n2)CC1` [Example 140] yielded an IC50 of 0.01 µM.
